Source: patent US8557300B2 (priority 2005, dated 2013)
Read-outs that look alike come from different tables or passages of the source.

What was measured:
[1] = test system: sodAsodB mutant of strain PAO1; conditions: aerobic conditions, LB pH 6.5, 15 mM NO2^−
Procedure: CFU are measured daily and plotted in logarithmic scale. For aerobic samples, strains are grown with vigorous shaking (300 rpm).

[2] = test system: mucoid strain FRD1; conditions: FRD1, CF ultrasupernatants pH 6.24, 15 mM NO2^−
Procedure: CFU are determined (n=3) and plotted as the X±SEM vs. time.
Purulent secretions are harvested from the airways of CF lungs which physicians remove at the time of lung transplantation.

[3] = test system: mucoid FRD1 and nonmucoid FRD1/pmucA in mouse lungs
Procedure: CD1 mice are infected with FRD1 or FRD1/pmucA.
CD1 mice are infected with ˜10^6 FRD1 or FRD1/pmucA entrapped in agar beads intratracheally. […] On the fifth day, the mice are sacrificed and the viable bacteria from the lung homogenates are enumerated.
The efficacy of HNO2 to kill strain FRD1 in a PA chronic lung infection model is then determined.

[4] = test system: FRD1 in mouse lungs; conditions: FRD1-infected mice, daily 15 mM NO2^− pH 6.5 for 16 days
[5] = test system: FRD1 and FRD1/pmucA in CD1 mouse airways
[6] = test system: mucoid CF clinical isolates of PA
Procedure: (§1) The CFU in the inoculum versus that after a 4 day anaerobic incubation are determined.
(§2) The PA strains used in this study include laboratory strains PAO1 (5), CF isolate FRD1 (6), other sputum isolates from CF patients, and sixteen mucoid isolates. Complementation of the mucA mutant allele of strain FRD1 is achieved by transformation with ptacmucA. Aerobic starter cultures are grown in L-broth (10 g tryptone, 5 g NaCl and 5 g yeast extract, per liter) at 37° C. […] To support anaerobic respiration, KNO3 and/or NaNO2 are added to the medium. The pH of the medium is adjusted with 100 mM sodium phosphate (for pH 6.5) or 100 mM sodium acetate (for pH 5.5). To enumerate viable cells in cultures, colony forming units (CFU) are determined.

[7] = test system: PA mucA, mucB, mucD, algW, algD, algT(U) mutant strains and clinical isolates
Procedure: Other than mucA, the aforementioned genes are the only reported loci that, when inactivated, allow for mucoid conversion in PA (25-27).
as §2

[8] = test system: mucoid FRD1 and nonmucoid FRD1/pmucA; conditions: 15 mM NO2^−, pH 6.5, anaerobic, 5 days
Procedure: The black bars indicate non-mucoid FRD1/pmucA and the gray bars indicate mucoid FRD1.
as §2

[9] = test system: PA strains isolated from 5 different young CF patients; conditions: 15 mM NO2^−
Procedure: as §2

[10] = test system: mucoid FRD1
Procedure: as §2

[11] = test system: nonmucoid PAO1, mucoid FRD1, nonmucoid FRD1/pmucA; conditions: pH 6.5, anaerobic
Procedure: The colony forming units (CFU) are enumerated each day and plotted.
Based upon the slightly acidic pH measurements of segmental and subsegmental bronchi from CF transplant patients, discussed above, well-characterized P. aeruginosa strains are grown at pH 6.5 under strict anaerobic conditions.
as §2

[12] = test system: FRD1 and FRD1/pmucA
Procedure: The FRD1 and FRD1/pmucA are seeded on LB agar and buffered at the indicated pH.
Plates are incubated for 2 days under anaerobic conditions.

[13] = test system: anaerobic biofilms of FRD1 and FRD1/pmucA
Procedure: For the confocal laser microscopic analysis of anaerobic FRD1 biofilms, live cells are stained with syto-9, and dead cells are stained with propidium iodide.
An 8-chambered coverslip system (Lab-Tek Inc., Campbell, Calif.) is used for biofilm architecture and viability experiments. […] Bacterial viability staining and image acquisition are accomplished as described previously by Sparkman et al.
Anaerobic biofilms of strains FRD1 and FRD1/pmucA are grown for 1 day in media containing NO3^−, which supports anaerobic respiration.

[14] = test system: PA sputum isolates CF-1 to CF-5; conditions: CF-1 to CF-4, 15 mM NO2^−, pH 6.5, anaerobic, 1 day
From the text: The effect of HNO2 on the killing of sputum isolates from CF patients is also monitored.

[15] = test system: CF airway epithelial cultures
Procedure: Transepithelial short circuit current (Isc in μA/Cm^2) is measured to monitor any change in bioelectric properties.
A primary culture of human airway epithelial cells is performed. […] LDH is measured using a commercially available spectrophotometric assay kit (Biovision Research Products, Mountain View, Calif.) according to the manufacturer's instructions. Then, the bioelectric properties of cultured airway epithelial cells are analyzed.

[16] = apical, cultured CF airway epithelia; preliminary studies
Procedure: (§3) For experiments measuring transepithelial water flux, the primary cultures of airway epithelia are cultured in a specially humidified incubator, to prevent evaporative water loss from the culture surface. […] BD concentration is measured optically and IL-8 concentrations in basolateral media are measured using commercially available antibody pairs (R&D Systems, Minneapolis, Minn.) according to the manufacturer's instructions. […] At various time points, aliquots of apical liquid are aspirated and stored at −20° C.

[17] = test system: CF airway epithelial cultures; conditions: 15 mM NO2^−, 24 hr
Procedure: as §3

[18] = test system: primary cultures of CF airway epithelia; conditions: 15 mM NO2^−, 24 hr
Procedure: as §3

[19] = test system: Staphylococcus aureus; conditions: slightly acidified
From the text: The current last resort for treatment against these antibiotic resistant strains is with vancomycin.

[20] = test system: mucoid FRD1 and nonmucoid FRD1/pmucA; conditions: pH 6.5/15 mM NO2^− versus pH 5.5/[…] NO2^−
[21] = test system: nor CB mutant of FRD1; conditions: pH 6.5
[22] = test system: human CF airway epithelium; conditions: up to 20 times the dose required to kill mucoid mucA mutant PA, 2 μl apical, pH 6.5, 24 hr
[23] = test system: FRD1 and FRD1/pmucA; assay: NO gas exposure of bacterial suspension (FIG. 10); type: cell-based, Pseudomonas aeruginosa; conditions: 380 nM solution concentration of NO, LB pH 6.5, 24 hr anaerobic
Procedure: A NO gas at 333 ppm is balanced with pure argon and continuously bubbled for 24 hr anaerobically.
Nitric oxide (NO) gas (200 ppm, 0.4 μM) balanced with Ar is anaerobically delivered to a water-jacketed chamber in which ˜10^8 bacteria/ml are suspended. […] Gas flow is constantly maintained at 3 ml/min. Pure Ar gas is used as a control.

[24] = test system: mucoid CF clinical isolates of PA; type: cell-based, Pseudomonas aeruginosa; conditions: isolates marked by black arrows in FIG. 6
Procedure: as §1

[25] = test system: mucoid FRD1; assay: Protection of mucoid FRD1 from acidified NO2^− by NO scavengers (FIG. 9); type: cell-based, Pseudomonas aeruginosa; conditions: millimolar concentrations (5 mM); LB pH 6.5, 15 mM NO2^−
From the text: Line 3 is the FRD1 control bacteria alone.

Compound: O=NO [HNO2, nitrous acid]
- sensitivity of sodAsodB mutant [1]: not sensitive
- speed of killing compared with L-broth [2]: killed faster
- decrease of mucoid FRD1 in lung ([3]; pH 5.5): > 3 logs
- decrease of mucoid FRD1 in lung ([3]; pH 6.5, 15 mM NO2^− intranasal): > 2 logs
- decrease of nonmucoid FRD1/pmucA in lung ([3]; pH 6.5 and pH 5.5): but not nonmucoid FRD1/pmucA, are decreased
- bacteria in lung after long-term treatment [4]: no bacteria detected
- competitive index ([5]; complemented strain FRD1/pmucA, 6 days): ~1.0
- competitive index ([5]; {}): ~0.2
- HNO2 concentration (pH 6.5/15 mM NO2^− and pH 5.5/[…] NO2^−): ~10 µM
- HNO2 concentration (pH 6.5 and 15 mM NO2^−): 10.62 µM

Compound: O=NO [NO2^−, nitrite]
- mucA mutant mucoid isolates showing increased susceptibility ([6]; 15 mM NO2^−, pH 6.5, anaerobic): 78 out of 82
- number of mucoid isolates with wild-type mucA allele resistant, out of 12 ([6]; acidified NO2^−): 8
- sensitivity of 4 antibiotic-resistant strains ([6]; anaerobic treatment with acidified NO2^−): still sensitive
- share of isolates killed by more than 2 logs ([6]; mucA mutant mucoid isolates, 15 mM NO2^−, pH 6.5, anaerobic): 74%
- LD50 for sensitive strains compared with FRD1 [7]: almost identical to that for FRD1
- sensitivity of FRD1 derived nonmucoid mutants ΔalgD and ΔalgT(U) [7]: equally sensitive
- sensitivity of PDO300 (PAO1 mucA22) [7]: sensitive
- sensitivity of mucB, mucD and algW mutants of PAO1 [7]: not sensitive
- viability of nonmucoid FRD1/pmucA after mixed incubation [8]: maintains viability
- CFU of mucoid FRD1 after mixed incubation ([8]; three bacterial ratios): < 10^3 CFU/ml
- killing of mucoid variants of patients A, B, C and D [9]: 1.9-3.1 logs
- LD50 ([10]; mucoid FRD1, pH 6.5, 24 hr anaerobic): ~3 mM
- bacteria killed ([10]; pH 6.5): Ninety to ninety-five
- killing on long-term exposure ([10]; pH 6.5): all organisms are killed
- viability of nonmucoid strains PAO1 and FRD1/pmucA ([11]; 15 mM NO2^−, 4 day incubation): remained viable
- rate of killing ([11]; mucoid FRD1, 15 mM NO2^−): 90 % per day
- killing versus pH ([12]; FRD1, filter disc 10 μl of 1 M NO2^−, anaerobic 48 hours): more effectively at lower pH
- killing versus pH ([12]; FRD1/pmucA, pH values between 6.0 and 7.5): little or no killing
- biofilm response ([13]; FRD1/pmucA biofilm, acidified NO2^−): resistance to acidified NO2^− is clearly evident
- death of biofilm organisms ([13]; FRD1 biofilm, 15 mM NO2^−, pH 6.5, 2 days): nearly complete death of biofilm organisms
- biofilm structure and cell viability relative to control ([13]; FRD1 biofilm, 15 mM NO2^−, pH 7.5, 2 days): no difference in biofilm structure and cell viability
- viability of mucoid mucA mutant sputum isolates [14]: a sharp decrease in viability
- amiloride-sensitive Isc ([15]; 15 mM NO2^− treated (control 15.4±1.4, p=0.92)): 15.7±1.7 μA/cm^2
- UTP-activated Isc ([15]; 15 mM NO2^− treated (control 17.7±3.0, p=0.92)): 18.1±3.3 μA/cm^2
- basal transepithelial short circuit current (Isc) ([15]; NO2^− at varying concentrations): not affected
- half-life of NO2^− on CF airway surfaces [16]: ~5 h
- transepithelial water flux (Jv) [17]: does not alter transepithelial water flux
- immune response as release of IL-8 [18]: does not cause activation of an immune response
- susceptibility of Staphylococcus aureus incl. MRSA [19]: exhibited susceptibility
- killing of mucoid bacteria at identical HNO2 concentrations [20]: equal killing
- sensitivity of norCB mutant relative to FRD1 [21]: ~10 fold
- in vitro sensitivity of organisms recovered from mouse airways after exposure ([3]; mouse, in vivo): still sensitive
- cytotoxicity by lactate dehydrogenase release [22]: no cytotoxicity

Compound: O=[N+]([O-])O [NO3^−, nitrate, reference compound]
- viability patterns of FRD1, PAO1 and FRD1/pmucA ([11]; 15 mM NO3^−): no difference in viability patterns is observed

Compound: [N]=O [NO, nitric oxide]
- killing of FRD1 by NO/Ar gas mixture [23]: is killed

Compound: NCC[C@H](O)C(=O)N[C@@H]1C[C@H](N)[C@@H](O[C@H]2O[C@H](CN)[C@@H](O)[C@H](O)[C@H]2O)[C@H](O)[C@H]1O[C@H]1O[C@H](CO)[C@@H](O)[C@H](N)[C@H]1O [amikacin]
- resistance of 4 clinical isolates [24]: highly resistant

Compound: CC1(C)N([O])C(c2ccc(C(=O)O)cc2)=[N+]([O-])C1(C)C [carboxy-PTIO]
- protection of FRD1 from killing by acidified NO2^− [25]: strong protective effect

Compound: CC(C)(O/N=C(\C(=O)N[C@@H]1C(=O)N2C(C(=O)[O-])=C(C[n+]3ccccc3)CS[C@H]12)c1csc(N)n1)C(=O)O [ceftazidime]
- resistance of 4 clinical isolates [24]: highly resistant

Compound: NC[C@H]1O[C@H](O[C@H]2[C@H](O)[C@@H](O[C@H]3O[C@H](CO)[C@@H](O)[C@H](N)[C@H]3O)[C@H](N)C[C@@H]2N)[C@H](N)C[C@@H]1O [tobramycin]
- resistance of 4 clinical isolates [24]: highly resistant

Compound: gentamycin
- resistance of 4 clinical isolates [24]: highly resistant
